These results are taken from patent US20070142352A1, “Pteridinone Derivatives as Modulators of Chemokine Receptor Activity” (ASTRAZENECA AB, priority 2001, published 2007).

Consider `C[C@H](CO)Nc1nc(SCc2cccc(F)c2F)nc2[nH]c(=O)c(NCc3ccccc3)nc12` [Example 2, 2-[[(2,3-difluorophenyl)methyl]thio]-4-[[(1R)-2-hydroxy-1-methylethyl]amino]-6-[(phenylmethyl)amino]-7(8H)-pteridinone], for which the melting point (as a rule, the temperature of the solid-liquid transition) fell in the range of 80 to 100 °C.
In the case of `C[C@H](CO)Nc1nc(SCc2cccc(F)c2F)nc2[nH]c(=O)c(NCCO)nc12` [Example 1, 2-[[(2,3-difluorophenyl)methyl]thio]-6-[(2-hydroxyethyl)amino]-4-[[(1R)-2-hydroxy-1-methylethyl]amino]-7(8H)-pteridinone] it was 197 to 199 °C.
